One block for each compound: values may come before it. Active and inactive are the calls of the source. The rule behind the calls is not given here.
What was measured:
[1] = Inhibition of adenylate deaminase
Adenosine deaminase = molecular target: T1, Adenosine deaminase (Bos taurus, UniProt P56658); assay: Inhibition of Bos taurus (calf) […]
T1 sequence (P56658 whole entry): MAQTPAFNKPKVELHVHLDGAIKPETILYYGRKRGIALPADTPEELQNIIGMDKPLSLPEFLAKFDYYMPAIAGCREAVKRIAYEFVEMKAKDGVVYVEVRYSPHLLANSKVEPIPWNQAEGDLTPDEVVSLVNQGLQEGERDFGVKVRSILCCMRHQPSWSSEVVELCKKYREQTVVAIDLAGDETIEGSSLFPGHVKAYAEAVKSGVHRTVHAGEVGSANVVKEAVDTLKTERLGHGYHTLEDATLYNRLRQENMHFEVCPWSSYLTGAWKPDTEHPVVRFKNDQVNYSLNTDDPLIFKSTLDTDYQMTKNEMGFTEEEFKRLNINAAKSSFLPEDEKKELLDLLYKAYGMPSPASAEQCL

Pisum sativum [2] = assay: Increase in ATP levels in Pisum sativum (pea) seedlings at 100 uM measured per gram of frozen weight after 4 hr by luciferase based assay (reference value: 253 to 267 nmol/g of frozen weight); type: functional, Lathyrus oleraceus
Pisum sativum [3] = assay: Increase in ATP levels in Pisum sativum (pea) seedlings at 100 uM measured per gram of frozen weight after 24 hr by luciferase based assay (reference value: 213 to 226 nmol/g of frozen weight); type: functional, Lathyrus oleraceus
AMP deaminase 1 = molecular target: T2, AMP deaminase 1 (Oryctolagus cuniculus, UniProt P81072); assay: Inhibition of Oryctolagus cuniculus (rabbit) muscle adenylate deaminase; design: species or system Muscle tissue
T2 sequence (P81072 whole entry): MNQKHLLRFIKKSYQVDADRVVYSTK

inhibition [1]: inactive
Compound: OC[C@H]1C[C@@H](n2cnc3cncnc32)[C@H](O)[C@@H]1O

IC50 (Adenosine deaminase): 5 µM | inhibition [1]: inactive
Compound: OC[C@H]1O[C@@H](c2n[nH]c3cncnc23)[C@H](O)[C@@H]1O [DEAMINOFORMYCIN]
Activity (Pisum sativum [2]): 423 nmol | Activity (Pisum sativum [3]): 693 nmol

inhibition [1]: inactive
Compound: O=P(O)(O)OC[C@H]1C[C@@H](n2cnc3cncnc32)[C@H](O)[C@@H]1O

Ki (AMP deaminase 1): 6.5 µM
Compound: O=P(O)(O)OC[C@H]1O[C@@H](n2cnc3cncnc32)[C@H](O)[C@@H]1O

IC50 (AMP deaminase 1): 70 nM
Compound: O=P(O)(O)OC[C@H]1O[C@@H](c2n[nH]c3cncnc23)[C@H](O)[C@@H]1O

Reference: ChEMBL document CHEMBL3045958, “The design and synthesis of inhibitors of adenosine 5'-monophosphate deaminase” (Bioorg Med Chem Lett, 1999)
